Reference: ChEMBL document CHEMBL4359884, “Design, synthesis and biological evaluation of novel pleuromutilin derivatives possessing acetamine phenyl linker” (Eur J Med Chem, 2019)
Converted amounts (≈) assume the structure as drawn.

Legend:
Format in all cases: functional
[1] = system: Staphylococcus aureus; assay: Antibacterial activity against Staphylococcus aureus AD3 assessed as bacterial growth inhibition incubated for 24 hrs by broth dilution method; settings: AD3, 24 h
[2] = system: Staphylococcus aureus; assay: Antibacterial activity against Staphylococcus aureus ATCC 29213 assessed as bacterial growth inhibition incubated for 24 hrs by broth dilution method; settings: ATCC 29213, 24 h
[3] = system: Escherichia coli; assay: Antibacterial activity against Escherichia coli ATCC 25922 assessed as bacterial growth inhibition incubated for 24 hrs by broth dilution method; settings: ATCC 25922, 24 h
[4] = system: Staphylococcus aureus; assay: Antibacterial activity against methicillin-resistant Staphylococcus aureus ATCC 43300 assessed as bacterial growth inhibition incubated for 24 hrs by broth dilution method; settings: ATCC 43300, 24 h
[5] = system: Escherichia coli; assay: Antibacterial activity against Escherichia coli 9-1 assessed as bacterial growth inhibition incubated for 24 hrs by broth dilution method; settings: 9-1, 24 h
[6] = system: Staphylococcus aureus; assay: Antibacterial against methicillin-resistant Staphylococcus aureus ATCC 43300 assessed as post antibiotic effect time at 2 times MIC incubated for 1 hr followed by compound washout and then incubated for 20 hrs onto MH agar plate
[7] = system: Staphylococcus aureus; assay: Antibacterial activity against methicillin-resistant Staphylococcus aureus infected in neutropenic thigh infection ICR/Swiss mouse model assessed reduction in colony forming unit in thigh at 20 mg/kg, iv administered 2 hrs post infection and measured at 24 hrs after drug dosage
[8] = system: Staphylococcus aureus; assay: Bactericidal activity against methicillin-resistant Staphylococcus aureus ATCC 43300 assessed as reduction in colony forming unit at 4 times MIC incubated for 24 hrs followed by compound dilution with saline and then incubated for 20 hrs on MH agar plate by time-kill kinetics assay
[9] = system: Staphylococcus aureus; assay: Bactericidal activity against methicillin-resistant Staphylococcus aureus ATCC 43300 assessed as reduction in colony forming unit at 4 times MIC incubated for 3 hrs followed by compound dilution with saline and then incubated for 20 hrs on MH agar plate by time-kill kinetics assay
[10] = system: Staphylococcus aureus; assay: Antibacterial against methicillin-resistant Staphylococcus aureus ATCC 43300 assessed as post antibiotic effect time at 4 times MIC incubated for 2 hrs followed by compound washout and then incubated for 20 hrs onto MH agar plate
[11] = system: Staphylococcus aureus; assay: Antibacterial activity against methicillin-resistant Staphylococcus aureus infected in systemic infection ICR mouse model assessed as animal survival rate at 30 mg/kg, iv relative to control
[12] = system: Staphylococcus aureus; assay: Bactericidal activity against methicillin-resistant Staphylococcus aureus ATCC 43300 assessed as reduction in colony forming unit at 4 times MIC incubated for 3 hrs followed by compound dilution with saline and then incubated for 20 hrs on MH agar plate by time-kill kinetics assay relative to control; set-up: scale not given: the % may be the effect or the level left
[13] = system: Staphylococcus aureus; assay: Antibacterial against methicillin-resistant Staphylococcus aureus ATCC 43300 assessed as post antibiotic effect time at 2 times MIC incubated for 2 hrs followed by compound washout and then incubated for 20 hrs onto MH agar plate
[14] = system: Staphylococcus aureus; assay: Antibacterial against methicillin-resistant Staphylococcus aureus ATCC 43300 assessed as post antibiotic effect time at 4 times MIC incubated for 1 hr followed by compound washout and then incubated for 20 hrs onto MH agar plate

Compound | MIC [1] | MIC [2] | MIC [3] | MIC [4] | MIC [5] | Time [6] | Activity [7] | Activity [8] | Activity [9] | Time [10] | Activity [11] | Activity [12] | Time [13] | Time [14]
C=C[C@]1(C)C[C@@H](OC(=O)CSc2ccccc2NC(=O)CN2CCN(c3ccccc3)CC2)[C@]2(C)[C@H](C)CC[C@]3(CCC(=O)[C@H]32)[C@@H](C)[C@@H]1O | 0.25 µg/mL (≈ 0.363 µM) | 0.25 µg/mL (≈ 0.363 µM) | > 32 µg/mL | 0.25 µg/mL (≈ 0.363 µM) | > 32 µg/mL | – | – | – | – | – | – | – | – | –
C=C[C@]1(C)C[C@@H](OC(=O)CSc2ccccc2NC(=O)CN2CCN(c3ccc(C)cc3)CC2)[C@]2(C)[C@H](C)CC[C@]3(CCC(=O)[C@H]32)[C@@H](C)[C@@H]1O | > 8 µg/mL | > 8 µg/mL | > 32 µg/mL | > 8 µg/mL | > 32 µg/mL | – | – | – | – | – | – | – | – | –
C=C[C@]1(C)C[C@@H](OC(=O)CSc2ccccc2NC(=O)CN2CCN(C)CC2)[C@]2(C)[C@H](C)CC[C@]3(CCC(=O)[C@H]32)[C@@H](C)[C@@H]1O | 0.5 µg/mL (≈ 0.799 µM) | 0.5 µg/mL (≈ 0.799 µM) | > 32 µg/mL | 0.5 µg/mL (≈ 0.799 µM) | > 32 µg/mL | – | – | – | – | – | – | – | – | –
C=C[C@]1(C)C[C@@H](OC(=O)CSc2ccccc2NC(=O)CN2CCN(c3ccc(O)cc3)CC2)[C@]2(C)[C@H](C)CC[C@]3(CCC(=O)[C@H]32)[C@@H](C)[C@@H]1O | 0.5 µg/mL (≈ 0.71 µM) | 1 µg/mL (≈ 1.42 µM) | > 32 µg/mL | 1 µg/mL (≈ 1.42 µM) | > 32 µg/mL | – | – | – | – | – | – | – | – | –
C=C[C@]1(C)C[C@@H](OC(=O)CSc2ccccc2NC(=O)CN(CC)CC)[C@]2(C)[C@H](C)CC[C@]3(CCC(=O)[C@H]32)[C@@H](C)[C@@H]1O | 0.125 µg/mL (≈ 0.209 µM) | 0.125 µg/mL (≈ 0.209 µM) | > 32 µg/mL | 0.125 µg/mL (≈ 0.209 µM) | > 32 µg/mL | – | – | – | – | – | – | – | – | –
C=C[C@]1(C)C[C@@H](OC(=O)CSc2ccccc2NC(=O)CN2CCN(c3ccccc3OC)CC2)[C@]2(C)[C@H](C)CC[C@]3(CCC(=O)[C@H]32)[C@@H](C)[C@@H]1O | > 8 µg/mL | > 8 µg/mL | > 32 µg/mL | > 8 µg/mL | > 32 µg/mL | – | – | – | – | – | – | – | – | –
C=C[C@]1(C)C[C@@H](OC(=O)CSc2ccccc2NC(=O)CN2CCN(c3cccc(O)c3)CC2)[C@]2(C)[C@H](C)CC[C@]3(CCC(=O)[C@H]32)[C@@H](C)[C@@H]1O | 0.25 µg/mL (≈ 0.355 µM) | 0.25 µg/mL (≈ 0.355 µM) | > 32 µg/mL | 0.125 µg/mL (≈ 0.178 µM) | > 32 µg/mL | – | – | – | – | – | – | – | – | –
C=C[C@]1(C)C[C@@H](OC(=O)CSc2ccccc2NC(=O)CN2CCN(c3cccc(OC)c3)CC2)[C@]2(C)[C@H](C)CC[C@]3(CCC(=O)[C@H]32)[C@@H](C)[C@@H]1O | 1 µg/mL (≈ 1.39 µM) | > 8 µg/mL | > 32 µg/mL | 4 µg/mL (≈ 5.57 µM) | > 32 µg/mL | – | – | – | – | – | – | – | – | –
C=C[C@]1(C)C[C@@H](OC(=O)CSc2ccccc2NC(=O)CN2CCC(O)CC2)[C@]2(C)[C@H](C)CC[C@]3(CCC(=O)[C@H]32)[C@@H](C)[C@@H]1O | 0.25 µg/mL (≈ 0.399 µM) | 0.125 µg/mL (≈ 0.199 µM) | > 32 µg/mL | 0.125 µg/mL (≈ 0.199 µM) | > 32 µg/mL | – | – | – | – | – | – | – | – | –
C=C[C@]1(C)C[C@@H](OC(=O)CSc2ccccc2NC(=O)CN2CCN(c3ccccc3C)CC2)[C@]2(C)[C@H](C)CC[C@]3(CCC(=O)[C@H]32)[C@@H](C)[C@@H]1O | 2 µg/mL (≈ 2.85 µM) | 4 µg/mL (≈ 5.7 µM) | > 32 µg/mL | 2 µg/mL (≈ 2.85 µM) | > 32 µg/mL | – | – | – | – | – | – | – | – | –
C=C[C@]1(C)C[C@@H](OC(=O)CSc2ccccc2NC(=O)CN2CCN(c3ccccc3Cl)CC2)[C@]2(C)[C@H](C)CC[C@]3(CCC(=O)[C@H]32)[C@@H](C)[C@@H]1O | 8 µg/mL (≈ 11.1 µM) | 8 µg/mL (≈ 11.1 µM) | > 32 µg/mL | 8 µg/mL (≈ 11.1 µM) | > 32 µg/mL | – | – | – | – | – | – | – | – | –
C=C[C@]1(C)C[C@@H](OC(=O)CSc2ccccc2NC(=O)CN2CCN(c3cccc(Cl)c3)CC2)[C@]2(C)[C@H](C)CC[C@]3(CCC(=O)[C@H]32)[C@@H](C)[C@@H]1O | 2 µg/mL (≈ 2.77 µM) | 1 µg/mL (≈ 1.38 µM) | > 32 µg/mL | 1 µg/mL (≈ 1.38 µM) | > 32 µg/mL | – | – | – | – | – | – | – | – | –
C=C[C@]1(C)C[C@@H](OC(=O)CSc2ccccc2NC(=O)CN2CCC(O)C2)[C@]2(C)[C@H](C)CC[C@]3(CCC(=O)[C@H]32)[C@@H](C)[C@@H]1O (some centres not stated) | 0.25 µg/mL (≈ 0.408 µM) | 0.25 µg/mL (≈ 0.408 µM) | > 32 µg/mL | 0.125 µg/mL (≈ 0.204 µM) | > 32 µg/mL | – | – | – | – | – | – | – | – | –
C=C[C@]1(C)C[C@@H](OC(=O)CSc2ccccc2NC(=O)CN2CCN(c3cccc(C)c3)CC2)[C@]2(C)[C@H](C)CC[C@]3(CCC(=O)[C@H]32)[C@@H](C)[C@@H]1O | > 8 µg/mL | > 8 µg/mL | > 32 µg/mL | > 8 µg/mL | > 32 µg/mL | – | – | – | – | – | – | – | – | –
C=C[C@]1(C)C[C@@H](OC(=O)CSc2ccccc2NC(=O)CN2CCN(c3ccc([N+](=O)[O-])cc3)CC2)[C@]2(C)[C@H](C)CC[C@]3(CCC(=O)[C@H]32)[C@@H](C)[C@@H]1O | 2 µg/mL (≈ 2.73 µM) | 4 µg/mL (≈ 5.46 µM) | > 32 µg/mL | 2 µg/mL (≈ 2.73 µM) | > 32 µg/mL | – | – | – | – | – | – | – | – | –
C=C[C@]1(C)C[C@@H](OC(=O)CSc2ccccc2NC(=O)CN2CCN(c3ccccc3F)CC2)[C@]2(C)[C@H](C)CC[C@]3(CCC(=O)[C@H]32)[C@@H](C)[C@@H]1O | 1 µg/mL (≈ 1.42 µM) | 8 µg/mL (≈ 11.3 µM) | > 32 µg/mL | 2 µg/mL (≈ 2.83 µM) | > 32 µg/mL | – | – | – | – | – | – | – | – | –
C=C[C@]1(C)C[C@@H](OC(=O)CSc2ccccc2NC(=O)CN2CCN(c3cccc([N+](=O)[O-])c3)CC2)[C@]2(C)[C@H](C)CC[C@]3(CCC(=O)[C@H]32)[C@@H](C)[C@@H]1O | 4 µg/mL (≈ 5.46 µM) | 4 µg/mL (≈ 5.46 µM) | > 32 µg/mL | 4 µg/mL (≈ 5.46 µM) | > 32 µg/mL | – | – | – | – | – | – | – | – | –
C=C[C@]1(C)C[C@@H](OC(=O)CSc2ccccc2NC(=O)CN2CCN(c3ccccc3O)CC2)[C@]2(C)[C@H](C)CC[C@]3(CCC(=O)[C@H]32)[C@@H](C)[C@@H]1O | 0.5 µg/mL (≈ 0.71 µM) | 2 µg/mL (≈ 2.84 µM) | > 32 µg/mL | 1 µg/mL (≈ 1.42 µM) | > 32 µg/mL | – | – | – | – | – | – | – | – | –
C=C[C@]1(C)C[C@@H](OC(=O)CSc2ccccc2NC(=O)CN2CCN(c3ccccc3[N+](=O)[O-])CC2)[C@]2(C)[C@H](C)CC[C@]3(CCC(=O)[C@H]32)[C@@H](C)[C@@H]1O | > 8 µg/mL | > 8 µg/mL | > 32 µg/mL | 4 µg/mL (≈ 5.46 µM) | > 32 µg/mL | – | – | – | – | – | – | – | – | –
C=C[C@]1(C)C[C@@H](OC(=O)CSc2ccccc2NC(=O)CN2CCCC2)[C@]2(C)[C@H](C)CC[C@]3(CCC(=O)[C@H]32)[C@@H](C)[C@@H]1O | 0.125 µg/mL (≈ 0.209 µM) | 0.125 µg/mL (≈ 0.209 µM) | > 32 µg/mL | 0.25 µg/mL (≈ 0.419 µM) | > 32 µg/mL | – | – | – | – | – | – | – | – | –
C=C[C@]1(C)C[C@@H](OC(=O)CSc2ccccc2NC(=O)CN2CCN(c3ccc(OC)cc3)CC2)[C@]2(C)[C@H](C)CC[C@]3(CCC(=O)[C@H]32)[C@@H](C)[C@@H]1O | 0.5 µg/mL (≈ 0.696 µM) | 4 µg/mL (≈ 5.57 µM) | > 32 µg/mL | 2 µg/mL (≈ 2.79 µM) | > 32 µg/mL | – | – | – | – | – | – | – | – | –
C=C[C@]1(C)C[C@@H](OC(=O)CSCCN(CC)CC)[C@]2(C)[C@H](C)CC[C@]3(CCC(=O)[C@H]32)[C@@H](C)[C@@H]1O [TIAMULIN] | 0.5 µg/mL (≈ 1.01 µM) | 1 µg/mL (≈ 2.03 µM) | – | 0.5 µg/mL (≈ 1.01 µM) | – | 1.53 h | 0.59 log10CFU/ml | 1.9 log10CFU/ml | 1.54 log10CFU/ml | 2.04 h | 20% | 97% | 1.65 h | 1.9 h
